Experimental findings from patent publication US6586460B1, “Heteroarotinoids containing urea or thiourea linker” (The Board of Regents for Oklahoma State University, priority 2001, dated 2003) are described below.

The subject of series [1] is ovarian carcinoma cell line OVCAR-3. In words: Apoptosis in organotypic culture, TUNNEL assay. The conditions noted are these: 1 μM; for % APOPTOSIS of OVCAR-3 cells: two weeks, organotypic culture, TUNNEL assay; for inducing apoptosis in the OVCAR-3 cell line, comparison in words: Table V. It is filed as cell-based, human. Here is the method:
In another experiment, the ovarian carcinoma cell line OVCAR-3 was grown in organotypic culture. After one week, the cultures were treated with 1 μM solution of heteroarotinoids 11, 12, and 13, or with the same volume of DMSO (solvent), for two weeks. Both 9-c-RA and 4-HPR were used as controls. At the end of the time, the cultures were fixed in sectioned, and stained with the TUNNEL assay to detect apoptosing cells. An experienced pathologist quantitated the percent of apoptosing cells by light microscopic examination.

Another series deals with OVCAR-3 cells. In words: In vivo tumor xenograph. The conditions noted are these: 10 mg/kg/day p.o.; for tumor growth (average tumor volume, FIG. 1): 5 days/week, beginning 35 days after implantation; for sizes of the tumors compared with control group treated with sesame oil alone: after 15 days of treatment, t-test P<0.05. On the set-up: species or system athymic nu/nu mice. On the procedure:
Thirty female athymic nu/nu mice (Charles Rivers Laboratories, Wilmington, Mass.) were housed in a laminar flow room under sterile conditions at 83-85° F. The mice were quarantined for one week prior to the beginning of the study and were allowed access to autoclaved food (Purina 5001 mouse/rat sterilized diet, St. Louis, Mo.) and water ad libitum. Then OVCAR-3 cells in log phase growth were harvested by trypsinization, resuspended in RPMI culture medium, and centrifuged at 3000 rpm for 10 min. The pellets were then resuspended in RPMI culture medium at a concentration of 7×10^6 cells/mL before implantation into mice. Animals were injected with 3.5×10^6 cells into right scapular region with a 24-gauge needle/1 mL tuberculin syringe (Becton Dickinson, Rutherford, N.J.). Twenty four hours after tumor implantation, animals were randomized into four treatment groups of 5 animals each. Retinoids were administered daily p.o. beginning 35 days after tumor implantation with a 20-gauge intragastric feeding tube (Popper & Sons, New Hyde Park, N.Y.), 5 days/week, at doses of 10 mg/kg/day in 0.1 mL of super refined sesame oil (Corda, Inc., Parisppany, N.J.). Tumors were measured with calipers weekly, and tumor volumes were calculated using the formula: volume=length×width×heigth. Animal weights and clinical signs of overall health status and cutaneous toxicities were recorded weekly. Agents 11 and 13 were evaluated against the 4-HPR standard. FIG. 1 illustrates the overall changes in tumor volumes found in the mice in these experiments. […] The animals were monitored daily for signs of toxicity, such as skin eczema and bone fractures, but none were observed. This is added evidence that these heteroarotinoids are strong candidates for cancer chemotherapy.

The nature of series [2]: Liver toxicity (plasma ALT activity, liver sections). It counts as in vivo. The conditions noted are these: 10 mg/kg/day p.o.; for liver toxicity (ALT activities, liver sections assessed by pathologist): mice. An excerpt:
Toxic compounds can induce livers to release enzymes called serum transaminases, such as alanine aminotransferase (ALT). The assay for ALT is the most universally accepted clinical laboratory marker used to evaluate hepatic toxicity induced by pharmaceuticals [See “Serum Transferase Elevations as Indicators or Hepatic Injury Following the Administration of Drugs”, Reg. Tox. Pharm., volume 27, 1998, pp 119-130, by D. E. Amacher]. At the end of the treatment period, blood was drawn from each animal. Plasma was separated by centrifugation and stored at −70° C. The activity of ALT was determined in aliquots of plasma by standard spectrophotometric enzymatic techniques which were based upon the reduction of pyruvate by lactate dehydrogenase [See “Aged Mice are Resistant to the Hepatotoxic Effects of Endotoxin and Galactosamine” in Exp. Mol. Pathology, volume 59, 1993, pp 27-37]. The method measures the disappearance of NADH from time of incubation at 37° C. The activities have been expressed in μm/Liter/min (Table VI). Two different amounts of plasma were utilized in each assay to assure the measurement of the maximum rate.
There were no statistically significant differences between the ALT activities in the different treatment groups (Table VI, t-test: P>0.05). All numbers were in the normal range (63 to 307 μm/Liter/Min) of ALT values for the species of mouse utilized. All liver sections were assessed by an experienced pathologist in a blinded manner. The degree of necrosis was very mild in all animals.

The subject of series [3] is OVCAR-3 cisplatin-resistant ovarian carcinoma cell line. In words: Cisplatin chemosensitization (MTS assay). It counts as cell-based, human. The conditions noted are these: 1 μM retinoid 3 days before and 3 days after one hour of cisplatin (40 μM or 1 μg/ml). Here is the method: The compounds of the present invention also find advantage over the standard retinoids, including retinoic acid and 4-HPR as chemosensitization agents. In another study, ovarian carcinoma cultures, including cisplatin-resistant cultures, were trypsinized and plated in microtiter plates at a concentration of 1000 cells per well. A series of natural and synthetic retinoids, including exemplar heteroarotinoids with the novel three atom linker, at a concentration of 5 μM were added to triplicate wells in the microtiter plates twenty-four hours later. The same volume of DMSO used to administer the compounds were added to the control cultures. After three days of treatment, a range of cisplatin concentrations were added to the wells. After one hours of exposure, the media and retinoid drugs were replenished. Cell survival was quantitated using the MTS assay (Promega). […] Thus, the present invention contemplates the process of sensitizing cells to cisplatin therapy and combined cisplatin and radiation therapy using the inventive heteroarotinoids.
In this regard, the cisplatin resistant OVCAR-3 cell line was pre-treated with a concentration of 1 μM of the indicated retinoids for 3 days, and then exposed to cisplatin at the concentration detected in tumors of treated patients (40 μM or 1 μg/ml). […] After one hour of cisplatin exposure, the cisplatin was removed and the cultures were grown in the presence of 1 μM of the indicated retinoids for an additional 3 days. The number of living cells present was then determined using the MTS (3-(4,5-dimethylthiazol-2-yl)-5-(3-carboxymethoxyphenyl)-2H-tetrazolium inner salt) assay (Promega). In the MTS assay, metabolically active cells reduce the MTS compound to an aqueous soluble formazan resulting in an absorbance that can be measured at 490 nm (Promega Technical Bulletin No.169). The optical density at 490 nm (OD490) of the MTS-treated cultures is then determined and used as a measure of the number of living cells in each well. The percent growth is determined by dividing the OD490 of the treated cultures by the OD490 of the untreated control cultures.

Series [4] is described as follows: Monitoring of xenograph mice for signs of toxicity. It is filed as in vivo. The settings on record: 10 mg/kg/day (MTD for t-RA).

For `CC1(C)CC(C)(C)c2cc(NC(=S)Nc3ccc([N+](=O)[O-])cc3)ccc2S1` [heteroarotinoid 11], in series [1], the “% APOPTOSIS of OVCAR-3 cells” value is 95% and the “inducing apoptosis in the OVCAR-3 cell line, comparison in words” value is given as “as effective as 4-HPR”. Besides, in the series with OVCAR-3 cells, the “tumor growth (average tumor volume, FIG. 1)” value is on record as “inhibited tumor growth” and the “sizes of the tumors compared with control group treated with sesame oil alone” value is listed as “significantly smaller”. The “liver toxicity (ALT activities, liver sections assessed by pathologist)” value in series [2] was “do not appear to induce significant liver toxicity”. Besides, in series [2] (plasma of mice at end of treatment period), the “ALT ACTIVITY” value worked out at 118.5 ± 153.4 μm/Liter/Min. In series [3], the “chemosensitization to cisplatin (percent growth, FIG. 2)” value is “effective”. In series [4], the “toxicity to the skin, bones, or liver” value was “did not cause toxicity”.
Take `CCOC(=O)c1ccc(NC(=O)Nc2ccc3c(c2)C(C)(C)CC(C)(C)S3)cc1` [heteroarotinoid 13]: in series [1], the “% APOPTOSIS of OVCAR-3 cells” value was found to be 80% and the “inducing apoptosis in the OVCAR-3 cell line, comparison in words” value is reported as “as effective as 4-HPR”. Besides, in the series with OVCAR-3 cells, the “tumor growth (average tumor volume, FIG. 1)” value is on record as “inhibited tumor growth” and the “sizes of the tumors compared with control group treated with sesame oil alone” value is reported as “significantly smaller”. Also, the “liver toxicity (ALT activities, liver sections assessed by pathologist)” value in series [2] was “do not appear to induce significant liver toxicity”. Moreover, the “chemosensitization to cisplatin (percent growth, FIG. 2)” value in series [3] is listed as “effective”. Besides, the “toxicity to the skin, bones, or liver” value in series [4] is “did not cause toxicity”.
